Laboratory results as given in US7709507B2 (Allergan, Inc., priority 2006, dated 2010).
Read-outs that look alike come from different tables or passages of the source.

Columns and labels:
Type in all cases: cell-based
alpha2A receptor = target: T1, alpha2A receptor (Homo sapiens, UniProt P08913); assay: Receptor Selection and Amplification Technology (RSAT) assay, Alpha 2A; conditions: for Alpha 2A IA (intrinsic activity): ratio of maximal effect to that of standard full agonist brimonidine (UK14304)
T1 construct: expressed in transfected cells; host or cells: NIH-3T3 cells
T1 sequence (P08913 1-465): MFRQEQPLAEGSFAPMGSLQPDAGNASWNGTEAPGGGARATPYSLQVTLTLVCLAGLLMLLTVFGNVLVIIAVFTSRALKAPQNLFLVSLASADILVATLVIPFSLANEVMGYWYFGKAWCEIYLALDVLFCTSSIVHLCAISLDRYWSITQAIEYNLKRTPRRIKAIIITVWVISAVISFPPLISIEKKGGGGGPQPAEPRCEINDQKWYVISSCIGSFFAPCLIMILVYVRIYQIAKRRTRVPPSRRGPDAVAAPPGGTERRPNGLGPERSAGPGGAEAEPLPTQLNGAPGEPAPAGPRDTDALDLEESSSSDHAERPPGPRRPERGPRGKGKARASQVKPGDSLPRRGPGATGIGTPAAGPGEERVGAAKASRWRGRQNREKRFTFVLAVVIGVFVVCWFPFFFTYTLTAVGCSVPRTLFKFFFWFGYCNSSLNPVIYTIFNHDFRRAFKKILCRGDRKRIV
Description: (§1) Receptor Selection and Amplification Technology (RSAT) Assay
(§2) The RSAT assay measures a receptor-mediated loss of contact inhibition that results in selective proliferation of receptor-containing cells in a mixed population of confluent cells. The increase in cell number is assessed with an appropriate transfected marker gene such as β-galactosidase, the activity of which can be easily measured in a 96-well format. Receptors that activate the G protein, Gq, elicit this response. Alpha2 receptors, which normally couple to Gi, activate the RSAT response when coexpressed with a hybrid Gq protein that has a Gi receptor recognition domain, called Gq/i5.
(§3) NIH-3T3 cells are plated at a density of 2×10^6 cells in 15 cm dishes and maintained in Dulbecco's modified Eagle's medium supplemented with 10% calf serum. One day later, cells are cotransfected by calcium phosphate precipitation with mammalian expression plasmids encoding p-SV-β-galactosidase (5-10 μg), receptor (1-2 μg) and G protein (1-2 μg). 40 μg salmon sperm DNA may also be included in the transfection mixture. […] Cells are thawed and 100 μl added to 100 μl aliquots of various concentrations of drugs in triplicate in 96-well dishes. Incubations continue 72-96 hr at 37° C. After washing with phosphate-buffered saline, β-galactosidase enzyme activity is determined by adding 200 μl of the chromogenic substrate (consisting of 3.5 mM o-nitrophenyl-β-D-galactopyranoside and 0.5% nonidet P-40 in phosphate buffered saline), incubating overnight at 30° C. and measuring optical density at 420 nm. The absorbance is a measure of enzyme activity, which depends on cell number and reflects a receptor-mediated cell proliferation. The efficacy or intrinsic activity is calculated as a ratio of the maximal effect of the drug to the maximal effect of a standard full agonist for each receptor subtype. Brimonidine, also called UK14304, the chemical structure of which is shown below, is used as the standard agonist for the alpha2A, alpha2B and alpha2C receptors. The EC50 is the concentration at which the drug effect is half of its maximal effect.
(§4) EC50 values are nanomolar. NA stands for “not active” at concentrations less than 10 micromolar. IA stands for “intrinsic activity.”

alpha2B receptor = target: T2, alpha2B receptor (Homo sapiens, UniProt P18089); assay: Receptor Selection and Amplification Technology (RSAT) assay, Alpha 2B; conditions: for EC50: transfected NIH-3T3 cells with Gq/i5, not active = at concentrations less than 10 micromolar; for Alpha 2B IA (intrinsic activity): ratio of maximal effect to that of standard full agonist brimonidine (UK14304)
T2 construct: expressed in transfected cells; host or cells: NIH-3T3 cells
T2 sequence (P18089 1-450): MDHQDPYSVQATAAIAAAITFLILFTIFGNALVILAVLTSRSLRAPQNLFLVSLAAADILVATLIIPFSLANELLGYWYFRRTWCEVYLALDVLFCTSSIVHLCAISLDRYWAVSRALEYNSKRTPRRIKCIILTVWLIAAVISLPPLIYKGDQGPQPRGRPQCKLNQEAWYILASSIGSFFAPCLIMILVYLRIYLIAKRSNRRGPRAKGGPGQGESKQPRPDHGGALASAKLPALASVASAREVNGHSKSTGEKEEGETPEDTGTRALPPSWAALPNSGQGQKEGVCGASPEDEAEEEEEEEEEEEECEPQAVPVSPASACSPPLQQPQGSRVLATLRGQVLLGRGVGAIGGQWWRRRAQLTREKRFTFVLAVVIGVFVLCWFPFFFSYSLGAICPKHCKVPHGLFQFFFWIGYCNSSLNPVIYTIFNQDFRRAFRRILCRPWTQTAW
Description: as §1, §2
NIH-3T3 cells are plated at a density of 2×10^6 cells in 15 cm dishes and maintained in Dulbecco's modified Eagle's medium supplemented with 10% calf serum. One day later, cells are cotransfected by calcium phosphate precipitation with mammalian expression plasmids encoding p-SV-β-galactosidase (5-10 μg), receptor (1-2 μg) and G protein (1-2 μg). 40 μg salmon sperm DNA may also be included in the transfection mixture. Fresh media is added on the following day and 1-2 days later, cells are harvested and frozen in 50 assay aliquots. Cells are thawed and 100 μl added to 100 μl aliquots of various concentrations of drugs in triplicate in 96-well dishes. Incubations continue 72-96 hr at 37° C. After washing with phosphate-buffered saline, β-galactosidase enzyme activity is determined by adding 200 μl of the chromogenic substrate (consisting of 3.5 mM o-nitrophenyl-β-D-galactopyranoside and 0.5% nonidet P-40 in phosphate buffered saline), incubating overnight at 30° C. and measuring optical density at 420 nm. The absorbance is a measure of enzyme activity, which depends on cell number and reflects a receptor-mediated cell proliferation. The efficacy or intrinsic activity is calculated as a ratio of the maximal effect of the drug to the maximal effect of a standard full agonist for each receptor subtype. Brimonidine, also called UK14304, the chemical structure of which is shown below, is used as the standard agonist for the alpha2A, alpha2B and alpha2C receptors. The EC50 is the concentration at which the drug effect is half of its maximal effect.
The results of the RSAT assay with several exemplary compounds of the invention are disclosed in Table 1 above together with the chemical formulas of these exemplary compounds. EC50 values are nanomolar. NA stands for “not active” at concentrations less than 10 micromolar. IA stands for “intrinsic activity.”

alpha2C receptor = target: T3, alpha2C receptor (Homo sapiens, UniProt P18825); assay: Receptor Selection and Amplification Technology (RSAT) assay, Alpha 2C; conditions: for Alpha 2C IA (intrinsic activity): ratio of maximal effect to that of standard full agonist brimonidine (UK14304)
T3 construct: expressed in transfected cells; host or cells: NIH-3T3 cells
T3 sequence (P18825 1-462): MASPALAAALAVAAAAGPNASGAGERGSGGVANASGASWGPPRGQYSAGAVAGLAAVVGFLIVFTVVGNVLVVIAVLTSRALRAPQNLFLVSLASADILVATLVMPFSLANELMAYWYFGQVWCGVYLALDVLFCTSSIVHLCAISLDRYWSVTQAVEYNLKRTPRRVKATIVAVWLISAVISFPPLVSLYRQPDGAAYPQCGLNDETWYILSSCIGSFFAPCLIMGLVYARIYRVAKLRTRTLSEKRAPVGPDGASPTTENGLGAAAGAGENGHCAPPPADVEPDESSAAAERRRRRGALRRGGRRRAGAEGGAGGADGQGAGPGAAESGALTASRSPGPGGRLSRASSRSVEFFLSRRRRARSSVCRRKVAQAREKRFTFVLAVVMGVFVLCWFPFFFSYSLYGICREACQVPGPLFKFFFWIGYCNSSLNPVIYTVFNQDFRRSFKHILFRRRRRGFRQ
Description: as §1, §2, §3, §4

[1] = RSAT, transfected NIH-3T3 cells with Gq/i5, not active = at concentrations less than 10 micromolar
[2] = RSAT, transfected NIH-3T3 cells with Gq/i5, not active = at concentrations less than 10 micromolar, read-out: Alpha 2C EC50
[3] = RSAT, transfected NIH-3T3 cells with Gq/i5, not active = at concentrations less than 10 micromolar, read-out: Alpha 2A EC50

Alpha 2A EC50 (alpha2A receptor; [1]) | EC50 (alpha2B receptor; RSAT, read-out: Alpha 2B EC50) [nM] | Alpha 2B IA (intrinsic activity) (alpha2B receptor) | Alpha 2C EC50 (alpha2C receptor; [1]) | Alpha 2A IA (intrinsic activity) (alpha2A receptor) | EC50 (alpha2A receptor; [3]) [nM] | SMILES | EC50 (alpha2C receptor; [2]) [nM] | Alpha 2C IA (intrinsic activity) (alpha2C receptor) | EC50 (alpha2A receptor) [nM] | EC50 (alpha2B receptor; Alpha 2B EC50, RSAT) [nM] | EC50 (alpha2C receptor) [nM]
not active | 12.9 | 0.96 | not active | – | – | O=C(NCCF)NC(Cc1ccccc1F)c1ccccc1 (stereo not shown) [1-(2-fluoroethyl)-3-[2-(2-fluorophenyl)-1-phenylethyl]urea] | – | – | – | – | –
not active | 51.3 | 0.93 | not active | – | – | O=C(NCCF)NC(Cc1ccc(F)cc1)c1ccccc1 (stereo not shown) [1-(2-fluoroethyl)-3-[2-(4-fluorophenyl)-1-phenylethyl]urea] | – | – | – | – | –
not active | 407 | 0.64 | – | – | – | O=C(NCCF)NC(Cc1ccccc1)c1ccccc1Cl (stereo not shown) [1-[1-(2-chlorophenyl)-2-phenylethyl]-3-(2-fluoroethyl)urea] | 700 | 0.34 | – | – | –
not active | 488 | 0.69 | not active | – | – | O=C(NCCF)NC(Cc1ccccc1)c1ccc(Cl)c(Cl)c1 (stereo not shown) [1-[1-(3,4-dichlorophenyl)-2-phenylethyl]-3-(2-fluoroethyl)urea] | – | – | – | – | –
not active | 173 | 0.86 | not active | – | – | O=C(NCCF)NC(Cc1ccccc1)c1cccc(Br)c1 (stereo not shown) [1-[1-(3-Bromophenyl)-2-phenylethyl]-3-(2-fluoroethyl)urea] | – | – | – | – | –
not active | 138 | 1.0 | not active | – | – | O=C(NCCF)NC(Cc1ccccc1)c1cccc(Cl)c1F (stereo not shown) [1-[1-(3-chloro-2-fluorophenyl)-2-phenylethyl]-3-(2-fluoroethyl)urea] | – | – | – | – | –
– | 5.99 | 0.9 | not active | 0.35 | 70.4 | Cc1cccc(CC(NC(=O)NCCF)c2cccc(Cl)c2)c1 (stereo not shown) [1-[1-(3-chloro-phenyl)-2-m-tolyl-ethyl]-3-(2-fluoro-ethyl)-urea] | – | – | – | – | –
– | 30.7 | 1.32 | not active | 0.57 | 368 | O=C(NCCF)NC(Cc1ccncc1)c1cccc(Cl)c1 (stereo not shown) [1-[1-(3-chloro-phenyl)-2-pyridin-4-yl-ethyl]-3-(2-fluoro-ethyl)-urea] | – | – | – | – | –

Second part, the compound before the results:

SMILES | Alpha 2A EC50 (alpha2A receptor; [1]) | EC50 (alpha2B receptor; RSAT, read-out: Alpha 2B EC50) [nM] | Alpha 2B IA (intrinsic activity) (alpha2B receptor) | Alpha 2C EC50 (alpha2C receptor; [1]) | Alpha 2A IA (intrinsic activity) (alpha2A receptor) | EC50 (alpha2A receptor; [3]) [nM] | EC50 (alpha2C receptor; [2]) [nM] | Alpha 2C IA (intrinsic activity) (alpha2C receptor) | EC50 (alpha2A receptor) [nM] | EC50 (alpha2B receptor; Alpha 2B EC50, RSAT) [nM] | EC50 (alpha2C receptor) [nM]
O=C(NCCF)NC(Cc1cccc(F)c1)c1cccc(C(F)(F)F)c1 (stereo not shown) [1-(2-fluoro-ethyl)-3-[2-(3-fluoro-phenyl)-1-(3-trifluoromethyl-phenyl)-ethyl]-urea] | not active | 84.2 | 0.84 | not active | – | – | – | – | – | – | –
O=C(NCCF)NC(Cc1cccc(F)c1)c1cccnc1 (stereo not shown) [1-(2-fluoro-ethyl)-3-[2-(3-fluoro-phenyl)-1-pyridin-3-yl-ethyl]-urea] | not active | 1990 | 0.41 | not active | – | – | – | – | – | – | –
O=C(NCCF)NC(Cc1ccc(F)cc1)c1cccnc1 (stereo not shown) [1-(2-fluoro-ethyl)-3-[2-(4-fluoro-phenyl)-1-pyridin-3-yl-ethyl]-urea] | not active | 2780 | 0.49 | not active | – | – | – | – | – | – | –
O=C(NCCF)NC(Cc1ccccc1)c1cccc2ccccc12 (stereo not shown) [1-(2-fluoroethyl)-3-[1-(1-naphthyl)-2-phenylethyl]urea] | not active | 160 | 0.77 | not active | – | – | – | – | – | – | –
COc1ccccc1C(Cc1ccccc1)NC(=O)NCCF (stereo not shown) [1-(2-fluoroethyl)-3-[1-(2-methoxyphenyl)-2-phenylethyl]urea] | not active | 51.2 | 0.88 | – | – | – | 78.9 | 0.42 | – | – | –
COc1ccc(C(Cc2ccccc2)NC(=O)NCCF)cc1 (stereo not shown) [1-(2-fluoroethyl)-3-[1-(4-methoxyphenyl)-2-phenylethyl]urea] | not active | 1060 | 0.3 | not active | – | – | – | – | – | – | –
Cc1ccc(C(Cc2ccccc2)NC(=O)NCCF)cc1 (stereo not shown) [1-(2-fluoroethyl)-3-[1-(4-methylphenyl)-2-phenylethyl]urea] | not active | 218 | 0.53 | not active | – | – | – | – | – | – | –
O=C(NCCF)NC(Cc1ccccc1)c1cccs1 (stereo not shown) [1-(2-fluoroethyl)-3-[2-phenyl-1-(2-thienyl)ethyl]urea] | – | – | 0.99 | – | 0.35 | – | – | 0.35 | 346 | 28.5 | 119
